US11274090B2, “P300/CBP HAT inhibitors” (Constellation Pharmaceuticals, Inc., priority 2018, dated 2022)

Biological target: p300 HAT domain (residues 1287-1666) (Homo sapiens (Human), UniProt Q09472)
Test: p300 HAT SPA assay (scintillation proximity assay, acetylation of biotinylated H3(1-21) peptide)
Format: biochemical
Details: average of at least 2 replicate titrations
Protocol: In a typical experiment the p300 HAT inhibitory activity of the compounds described herein was determined in accordance with the following experimental method.
The expressed protein was purified by Ni2+ affinity, followed by anion exchange chromatography. Appropriate fractions were pooled and buffer exchanged into 20 mM Hepes pH 7.5, 150 mM NaCl, and 1 mM TCEP.
35 μL of the reaction volume was transferred to a 384-well streptavidin FlashPlate (PerkinElmer) using a Bravo liquid handler (Velocity 11) and incubated for 1.5 hr at RT. […] Data were analyzed in Genedata to determine inhibitor IC50 values.

p300 HAT domain (residues 1287-1666), sequence (Q09472 1287-1666): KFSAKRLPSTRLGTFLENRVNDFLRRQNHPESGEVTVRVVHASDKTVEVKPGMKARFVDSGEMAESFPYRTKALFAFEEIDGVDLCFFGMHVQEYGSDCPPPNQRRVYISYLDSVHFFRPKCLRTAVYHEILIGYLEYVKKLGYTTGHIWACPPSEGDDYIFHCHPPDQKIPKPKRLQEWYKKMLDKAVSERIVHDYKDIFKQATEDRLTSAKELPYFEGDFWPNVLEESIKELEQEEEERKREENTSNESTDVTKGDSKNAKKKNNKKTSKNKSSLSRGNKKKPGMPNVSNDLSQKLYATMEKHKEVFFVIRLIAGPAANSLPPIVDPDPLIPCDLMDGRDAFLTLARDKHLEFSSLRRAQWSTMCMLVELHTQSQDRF

| Compound | IC50 [nM] |
| --- | --- |
| Cn1cc(-c2cnc(NC(=O)C(NCCc3ccc(C#N)cc3)c3ccccc3)c(Cl)c2)cn1 (single isomer, unassigned) [43 Isomer 1] | 185 |
| CC(Cc1ccc(Cl)cc1)NC(C(=O)Nc1ccc(-c2cnn(C)c2)cc1)c1ccccc1 (single isomer, unassigned) [3 Isomer 1] | 196 |
| CC(CNC(C(=O)Nc1ccc(-c2cnn(CC(F)(F)F)c2)cn1)c1ccccc1)c1ccc(C#N)cc1 (single isomer, unassigned) [83 Isomer 1] | > 2000 |
| N#Cc1ccc(CCNC(C(=O)Nc2ccc(N3CCC(F)(F)CC3)cn2)c2ccccc2)cc1 (single isomer, unassigned) [38 Isomer 2] | > 2000 |
| COc1ccc(C(NCCc2ccc(C#N)cc2)C(=O)Nc2ccc(-c3cnn(C)c3)cn2)cc1 (single isomer, unassigned) [63 Isomer 1] | 86 |
| CC(CNC(C(=O)Nc1ccc(-c2cnn(C3CCC3)c2)cn1)c1ccccc1)c1ccc(C#N)cc1 (single isomer, unassigned) [52 Isomer 2] | > 2000 |
| CCN(CC)C(=O)C1CCN(c2ccc(NC(=O)C(NCCc3ccc(C#N)cc3)c3ccccc3)nc2)CC1 (single isomer, unassigned) [64 Isomer 1] | > 2000 |
| CO[C@H]1CCN(c2ccc(NC(=O)C(NCC(C)c3ccc(C#N)cc3)c3ccccc3)nc2)C1 (single isomer, unassigned) [93 Isomer 2] | > 2000 |
| COC1CN(c2ccc(NC(=O)C(NCC(C)c3ccc(C#N)cc3)c3ccccc3)nc2)C1 (single isomer, unassigned) [32 Isomer 4] | > 2000 |
| C[C@H](CNC(C(=O)Nc1ccc(-c2cnn(C)c2)cn1)c1cncc(F)c1)c1ccc(C#N)cc1 (single isomer, unassigned) [129 Isomer 1] | 75.4 |
| Cn1cc(-c2ccc(NC(=O)C(NCCc3ccc(C#N)cc3)c3cccc(Cl)c3)nc2)cn1 (single isomer, unassigned) [79 Isomer 1] | > 2000 |
| Cn1cc(-c2ccc(NC(=O)C(NCCn3cc(C#N)cn3)c3ccccc3)nc2)cn1 (single isomer, unassigned) [144 Isomer 2] | 1070 |
| CC(CNC(C(=O)Nc1ccc(N2CCN(C)S2(=O)=O)cn1)c1ccccc1)c1ccc(C#N)cc1 (single isomer, unassigned) [108 Isomer 1] | > 2000 |
| CC1CN(c2ccc(NC(=O)C(NC[C@@H](C)c3ccc(C#N)cc3)c3ccccc3)nc2)CC(=O)N1C (single isomer, unassigned) [124 Isomer 2] | 768 |
| Cc1nc(NC(=O)C(NCC(C)c2ccc(C#N)cc2)c2ccccc2)ccc1-c1cnn(C)c1 (single isomer, unassigned) [39 Isomer 4] | 304 |
| Cn1cc(-c2ccc(NC(=O)C(NCCc3ccc(C#N)cc3)c3cccc(C#N)c3)nc2)cn1 (single isomer, unassigned) [116 Isomer 1] | 443 |
| Cc1cnc(-c2ccc(NC(=O)C(NCCc3ccc(C#N)cc3)c3ccccc3)cc2)[nH]1 (single isomer, unassigned) [11 Isomer 2] | > 5000 |
| COc1ccccc1C(NCCc1ccc(C#N)cc1)C(=O)Nc1ccc(-c2cnn(C)c2)cn1 (single isomer, unassigned) [87 Isomer 1] | 264 |
| Cc1ccc(C(C)CNC(C(=O)Nc2ccc(-c3cnn(C)c3)cn2)c2ccccc2)cn1 (single isomer, unassigned) [143 Isomer 4] | 171 |
| CC(CNC(C(=O)Nc1ccc(-c2cnn(C)c2)cn1)c1cnn(C)c1)c1ccc(C#N)cc1 (single isomer, unassigned) [127 Isomer 1] | > 2000 |
| Cn1cc(-c2ccc(NC(=O)C(NCCc3ccc(C#N)cc3)c3ccccc3)nn2)cn1 (single isomer, unassigned) [57 Isomer 2] | > 5000 |
| CC(CNC(C(=O)Nc1ccc(-c2cn(C)nn2)cn1)c1ccccc1)c1ccc(C#N)cc1 (single isomer, unassigned) [100 Isomer 3] | > 2000 |
| CO[C@@H]1CCN(c2ccc(NC(=O)C(NCC(C)c3ccc(C#N)cc3)c3ccccc3)nc2)C1 (single isomer, unassigned) [92 Isomer 1] | 881 |
| Cc1cc(NC(=O)C(NC[C@@H](C)c2ccc(C#N)cc2)c2ccccc2)ncc1-c1cnn(C)c1 (single isomer, unassigned) [115 Isomer 1] | > 2000 |
| CN1CCN(c2ccc(NC(=O)C(NCCc3ccc(Cl)cc3)c3ccccc3)nc2)CC1 (single isomer, unassigned) [69 Isomer 2] | > 2000 |
| Cc1n[nH]c(C)c1-c1ccc(NC(=O)C(NC[C@@H](C)c2ccc(C#N)cc2)c2ccccc2)nc1 (single isomer, unassigned) [133 Isomer 1] | 1230 |
| Cn1cc(-c2ccc(NC(=O)C(NCCn3cc(C#N)cn3)c3ccccc3)nc2)cn1 (single isomer, unassigned) [144 Isomer 1] | > 2000 |

| Compound | IC50 [nM] |
| --- | --- |
| CC(CNC(C(=O)Nc1ccc(N2CCN(C)C(=O)C2)cn1)c1cnn(C)c1)c1ccc(C#N)cc1 (single isomer, unassigned) [136 Isomer 4] | > 2000 |
| CC(CNC(C(=O)Nc1ccc(-n2cnc(C(C)(C)C)c2)cn1)c1ccccc1)c1ccc(C#N)cc1 (single isomer, unassigned) [59 Isomer 4] | 39.3 |
| C[C@H](CNC(C(=O)Nc1ccc(-c2cnn(CC(=O)N(C)C)c2)cn1)c1ccccc1)c1ccc(C#N)cc1 (single isomer, unassigned) [84 Isomer 1] | 395 |
| Cc1ccc(-c2ccc(NC(=O)C(NCC(C)c3ccc(C#N)cc3)c3ccccc3)nc2)nn1 (single isomer, unassigned) [15 Isomer 2] | > 2000 |
| CN1CCN(c2ccc(NC(=O)C(NCCc3ccc(C#N)cc3)c3ccccc3)nc2)CCC1=O (single isomer, unassigned) [71 Isomer 1] | 86.9 |
| CC(CNC(C(=O)Nc1ccc(-c2cnn(C(C)(C)C)c2)cn1)c1ccccc1)c1ccc(C#N)cc1 (single isomer, unassigned) [54 Isomer 2] | 23.9 |
| (S,R)-, (R,S)-, (S,S)-, (R,R)-(2-((2-(4-cyanophenyl)propyl)amino)-N-(5-(1-(difluoromethyl)-1H-pyrazol-4-yl)pyridin-2-yl)-2-phenylacetamide [20 Isomer 4] | > 2000 |
| (S,R)-, (R,S)-, (S,S)-, (R,R)-(2-((2-(4-cyanophenyl)propyl)amino)-N-(5-(1-(difluoromethyl)-1H-pyrazol-4-yl)pyridin-2-yl)-2-phenylacetamide [20 Isomer 3] | 1630 |
| CC(Cc1ccc(Cl)cc1)NC(C(=O)Nc1ccc(-c2cnn(C)c2)cc1)c1ccccc1 (single isomer, unassigned) [3 Isomer 2] | > 5000 |
| C[C@H](CNC(C(=O)Nc1ccc(-c2cc(=O)n(C)cn2)cn1)c1ccccc1)c1ccc(C#N)cc1 (single isomer, unassigned) [106 Isomer 1] | > 2000 |
| CC(CNC(C(=O)Nc1ccc(-c2cnn(C)n2)cn1)c1ccccc1)c1ccc(C(F)(F)F)cc1 (single isomer, unassigned) [99 Isomer 1] | 869 |
| N#Cc1ccc(CCNC(C(=O)Nc2ccc(N3CCC(F)(F)CC3)cn2)c2ccccc2)cc1 (single isomer, unassigned) [38 Isomer 1] | 206 |
| CC(CNC(C(=O)Nc1ccc(N2CCN(C)S2(=O)=O)cn1)c1ccccc1)c1ccc(C#N)cc1 (single isomer, unassigned) [108 Isomer 2] | 23.7 |
| Cc1cnc(-c2ccc(NC(=O)C(NCCc3ccc(C#N)cc3)c3ccccc3)cc2)[nH]1 (single isomer, unassigned) [11 Isomer 1] | 279 |
| Cn1cc(-c2ccc(NC(=O)C(NCCc3ccc(C#N)cc3)c3ccccc3)cc2Cl)cn1 (single isomer, unassigned) [27 Isomer 2] | > 5000 |
| Cn1cc(-c2ccc(NC(=O)C(NCCc3ccc(C#N)c(F)c3)c3ccccc3)nc2)cn1 (single isomer, unassigned) [85 Isomer 2] | 470 |
| COC1CCN(c2ccc(NC(=O)C(NCCc3ccc(C#N)cc3)c3ccccc3)nc2)CC1 (single isomer, unassigned) [66 Isomer 2] | > 5000 |
| Cn1cc(-c2ccc(NC(=O)C(NCC3(c4ccc(Cl)cc4)CC3)c3ccccc3)nc2)cn1 (single isomer, unassigned) [97 Isomer 2] | > 2000 |
| CC(CNC(C(=O)Nc1ccc(N2CCN(CC(F)(F)F)C(=O)C2)cn1)c1ccccc1)c1ccc(C#N)cc1 (single isomer, unassigned) [103 Isomer 4] | > 2000 |
| CC(CNC(C(=O)Nc1ccc(-c2cnn(C(C)(C)C)c2)cn1)c1ccccc1)c1ccc(C#N)cc1 (single isomer, unassigned) [54 Isomer 4] | 1970 |
| C[C@H](CNC(C(=O)Nc1ccc(-c2ccn(C)c(=O)c2)cn1)c1ccccc1)c1ccc(C#N)cc1 (single isomer, unassigned) [105 Isomer 1] | > 2000 |
| CC(CNC(C(=O)Nc1ccc(N2CCN(C)S2(=O)=O)cn1)c1ccccc1)c1ccc(C#N)cc1 (single isomer, unassigned) [108 Isomer 4] | > 2000 |
| Cc1nc(NC(=O)C(NCC(C)c2ccc(C#N)cc2)c2ccccc2)ccc1-c1cnn(C)c1 (single isomer, unassigned) [39 Isomer 3] | 17.7 |
| CC(CNC(C(=O)Nc1ccc(-c2cnn(CC(F)(F)F)c2)cn1)c1ccccc1)c1ccc(C#N)cc1 (single isomer, unassigned) [83 Isomer 3] | 503 |
| Cc1ncc(-c2ccc(NC(=O)[C@H](NC[C@@H](C)c3ccc(C#N)cc3)c3ccccc3)nc2)cn1 (single isomer, unassigned; isomer 3) [6 Isomer 3] | > 2000 |
| CC(CNC(C(=O)Nc1ccc(-c2cnn(C3CCC3)c2)cn1)c1ccccc1)c1ccc(C#N)cc1 (single isomer, unassigned) [52 Isomer 1] | 612 |
| C[C@H](CNC(C(=O)Nc1ccc(-c2cnn(CC(=O)N3CCCC3)c2)cn1)c1ccccc1)c1ccc(C#N)cc1 (single isomer, unassigned) [132 Isomer 1] | 932 |
